Consider 18 compounds from paper PMC7811517, “Human neuronal signaling and communication assays to assess functional neurotoxicity” (Archives of Toxicology, 2020).

For data set [1], the system named is P2X receptors. Put plainly: Ca2+-imaging of LUHMES neurons, P2X receptor antagonists against ATP or α,β-meATP response. Type of data set: cell-based, human. As to conditions: for pIC50 on the response triggered by ATP: 1 µM ATP (~EC75). On the procedure:
(§1) The signals of individual cells could not be captured. […] The total recording never exceeded 8 min.
(§2) (Ritz et al. [2015]). […].

The subject of data set [2] is LUHMES neurons. Type of data set: cell-based, human. On the procedure:
as §1

The target in data set [3] is dopamine transporter (DAT) (Homo sapiens, UniProt Q01959). It counts as cell-based. On the procedure:
LUHMES cells were differentiated for 6 days in a 24-well format and then treated with the indicated DAT inhibitors. […] After 10 min at 37 °C, the supernatant was removed and cells were washed with PBS. Then lysis buffer was added (PBS containing 0.2% Triton X-100). The amount of radioactive label taken up by the cells as well as the residual activity in the cell supernatant (plus washing buffer) was measured on a scintillation counter.

In data set [4] the test system is LUHMES neurons. Put plainly: Manual patch clamp recordings of LUHMES neurons. Type of data set: cell-based, human. From the text: Manual patch clamp was executed with an EPC 10 USB patch clamp amplifier and PatchMaster Software (version 2 × 90.5; HEKA Elektronik, Lambrecht, Germany). […] Intracellular solution contained [mM]: 107 K-gluconate, 10 KCl, 1 MgCl2, 10 HEPES, 5 EGTA, 4 Na2ATP and 0.2 NaGTP, pH 7.20. Recordings were obtained at room temperature. The cells were kept at a holding potential of − 70 mV. In voltage clamp mode NaV and voltage-gated potassium (KV) channels were activated for 300 ms by voltage pulses ranging from − 70 to + 70 mV in + 10 mV steps after a hyperpolarizing step to − 120 mV for 200 ms. To investigate the firing behavior, cells were stimulated in current clamp mode by hyper- and depolarizing current pulses of 300 ms duration. The pulse protocol was executed at 0.2 Hz. For agonist tests in current clamp and voltage clamp mode, cells were kept at a holding potential of − 70 mV and the compounds were applied for 5 s.
The raw data of the manual patch clamp recordings were analyzed in scripts written in R. For leak subtraction, the P/4 algorithms of PatchMaster and QPatch Software were used in the voltage clamp recordings for manual and automated patch clamp experiments, respectively.
(The patch-clamp technique gives a direct electrical read-out from membranes.)

The test system of data set [5] is P2X receptors. Nature of the data set: Ca2+-imaging of LUHMES neurons, P2 receptor agonist responses. The following applies: for pEC50 in Ca2+-imaging: LUHMES neurons, agonist concentration-response. It counts as cell-based, human. As to the method:
as §1
(Ritz et al. [2015]). The logarithm of the half-maximal effective concentration (logEC50) between 0 and the upper limit (d), which was set to 1, is represented by ẽ, x denotes the concentration and b stands for the slope parameter (Ritz et al. [2015]).

A further data set relates to NaV1.6. The following applies: ref McCormack et al. [2013]; cited from earlier work.
A further data set concerns NaV1.2. As to conditions: ref McCormack et al. [2013]; cited from earlier work.
Data set [6] relates to NaV channels. Nature of the data set: Automated patch clamp recordings (QPatch) of NaV channel currents in LUHMES neurons. Type of data set: cell-based, human.
The next data set relates to NaV1.7. As to conditions: ref McCormack et al. [2013]; cited from earlier work.
The test system of the next data set is NaV1.1. The following applies: ref McCormack et al. [2013]; cited from earlier work.
Another data set has as its system NaV1.3. As to conditions: ref McCormack et al. [2013]; cited from earlier work.
Another data set relates to rat hippocampal neurons. The following applies: cited from earlier work.
Data set [7] relates to NaV channels. Put plainly: Ca2+-imaging of LUHMES neurons, NaV channel toxicants. It counts as cell-based, human. On the procedure:
as §1, §2

A further data set has as its system mice. The following applies: mouse, in vivo; cited from earlier work.
In a further data set the target is human P2X3 receptors. The following applies: ref Garcia-Guzman et al. [1997]; cited from earlier work.
Where [8] appears, read: 1 µM DA and 0.3 µM AMP, NNC 55–0396 30 µM.

A word on the IC50: it is the concentration that inhibits the measured activity by half.

Where “and” joins values, the source holds several entries; their conditions need not be identical. Equal entries are not always repeated. Entries after “also recorded” stand apart in the source; their conditions may differ. Where two headings read alike, the source gives them in different places. A value given as a limit tells only on which side of the number the result lay.

dopamine transporter (DAT), sequence (Q01959 whole entry): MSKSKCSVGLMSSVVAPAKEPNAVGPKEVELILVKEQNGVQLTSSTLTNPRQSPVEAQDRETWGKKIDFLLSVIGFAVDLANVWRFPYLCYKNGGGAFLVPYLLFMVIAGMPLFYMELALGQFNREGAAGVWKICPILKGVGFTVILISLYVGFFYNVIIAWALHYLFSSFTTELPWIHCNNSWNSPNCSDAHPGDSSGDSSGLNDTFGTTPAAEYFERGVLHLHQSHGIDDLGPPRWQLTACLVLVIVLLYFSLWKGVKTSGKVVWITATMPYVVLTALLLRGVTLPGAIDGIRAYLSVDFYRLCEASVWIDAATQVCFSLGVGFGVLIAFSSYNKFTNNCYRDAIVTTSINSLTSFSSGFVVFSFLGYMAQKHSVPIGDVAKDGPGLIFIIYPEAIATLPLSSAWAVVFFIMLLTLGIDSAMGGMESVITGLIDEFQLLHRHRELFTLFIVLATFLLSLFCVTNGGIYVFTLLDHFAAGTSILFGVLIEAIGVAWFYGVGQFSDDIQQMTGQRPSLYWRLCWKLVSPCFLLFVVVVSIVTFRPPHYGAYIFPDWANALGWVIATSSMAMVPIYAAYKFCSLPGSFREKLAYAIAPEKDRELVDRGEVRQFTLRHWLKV

Turning to `O=C(O)c1cc(C(=O)O)c(C(=O)N(Cc2cccc(Oc3ccccc3)c2)[C@H]2CCCc3ccccc32)cc1C(=O)O` [A-317491], in the data set with P2X receptors [1], the “block of the response of ATP” value is given as “up to 40%”; the “effect on ATP signals” value is reported as “only a weak partial effect”; the “effect on the response to α,β-meATP” value is “potently and completely blocked”; the “pIC50 on the response triggered by α,β-meATP” value (from here on “pIC50 … by α,β-meATP”) is 6.31 ± 0.05.

For the compound `CC(N)Cc1ccccc1` (centres unmarked) [AMP, amphetamine], in the data set with LUHMES neurons [2] (1 µM DA (n = 6), 0.3 µM AMP (n = 10), FFT analysis), the main oscillation frequency was 0.234 ± 0.007 Hz and 0.2–0.23 Hz. Besides, in the data set on LUHMES neurons [2] (1 µM DA (n = 125), 0.3 µM AMP (n = 50)), the “recordings with oscillations of the Ca2+-imaging signal” value is 94.0%. In addition, the “effect on uptake of [3H]DA” value in [3] is listed as “inhibited; also recorded: significantly reduced”.

With `Nc1ncnc2c1ncn2[C@@H]1O[C@H](COP(=O)(O)OP(=O)(O)OP(=O)(O)O)[C@@H](O)[C@H]1O` [ATP, Adenosine 5'-triphosphate], in the data set on LUHMES neurons [4] (100 µM ATP for 5 s, current clamp), the “response to agonist application” value is on record as “triggered action potential firing”. In the data set with P2X receptors [5], the “pEC50 in Ca2+-imaging” value is given as 7.35 ± 0.08. Moreover, the “half-life of the fast decrease of the fluorescence signal” value with P2X receptors [5] (at 100 µM ATP) is listed as ~ 8 s.

Regarding `Nc1ncnc2c1ncn2[C@@H]1O[C@H](COP(=O)(O)OP(=O)(O)OP(=O)(O)O)[C@@H](OC(=O)c2ccc(C(=O)c3ccccc3)cc2)[C@H]1O` [BzATP], at P2X receptors [5], the “pEC50 in Ca2+-imaging” value worked out at 7.76 ± 0.11.

Take `NCCc1ccc(O)c(O)c1` [DA, dopamine]: in the data set on LUHMES neurons [2], the main oscillation frequency was 0.201 ± 0.002 Hz and 0.2–0.23 Hz; the “recordings with oscillations of the Ca2+-imaging signal” value is 61.6% and 62%.

Regarding `O=C(Nc1ccc(S(=O)(=O)Nc2nccs2)cc1)C(c1ccccc1)c1ccccc1` [ICA-121431], the IC50 is 13000 nM with NaV1.6; 240 nM in the data set on NaV1.2; 10000 nM with NaV1.7; 23 nM in the data set with NaV1.1; 13 nM with NaV1.3. Moreover, the “pIC50, NaV current with 50% of channels inactivated” value in the data set with NaV channels [6] (prepulse to −55 mV) is 6.33 ± 0.10 and 6.3.

With `CCN(CC)CC(=O)Nc1c(C)cccc1C` [Lidocaine, lidocaine], in the data set on rat hippocampal neurons, the “pIC50 in rat hippocampal neurons” value is recorded as ~ 3.4. In addition, in the data set on NaV channels [6], the “pIC50, NaV current, 1st pulse” value is recorded as 3.03 ± 0.07 and the “pIC50, NaV current, 10th pulse” value came to 3.57 ± 0.06.

For `CC(C)[C@H]1c2ccc(F)cc2CC[C@@]1(CCN(C)CCCc1nc2ccccc2[nH]1)OC(=O)C1CC1.Cl.Cl` [NNC 55–0396, (1S,2S)-2-(2-(N-[(3-benzimidazol-2-yl)propyl]-N-methylamino)ethyl)-6-fluoro-1,2,3,4-tetrahydro-1-isopropyl-2-naphtyl cyclopropanecarboxylate dihydrochloride], in the data set with LUHMES neurons [2], the “signal amplitude compared to control, response to AMP” value amounted to 2.1 ± 0.02% and the “signal amplitude compared to control, response to DA” value is 3.0 ± 0.02%. For the same compound, in the data set on LUHMES neurons [2] (setting [8]), the “inhibition of amplitude, DA/AMP induced oscillations” value is recorded as > 95% and the “signal amplitude compared to control, DA/AMP induced oscillations” value is reported as 2–3%.

For `Nc1ncnc2c1ncn2[C@@H]1O[C@H](COP(=O)(O)OP(=O)(O)OP(=O)(O)O)[C@H]2OC3(O[C@H]21)C([N+](=O)[O-])=CC(=[N+]([O-])[O-])C=C3[N+](=O)[O-]` (some centres unmarked) [TNP-ATP, 2′,3′-O-(2,4,6-trinitrophenyl) adenosine 5′-triphosphate], the “pIC50 … by α,β-meATP” value with P2X receptors [1] (0.1 µM α,β-meATP (~EC75)) was 7.5. In the data set on P2X receptors [1], the “pIC50 on the response triggered by ATP” value is 6.1 and 6.05 ± 0.06.

As to `NC1=N[C@H](O)[C@H]2[C@H]3O[C@]4(O)O[C@@H]([C@@H](O)[C@@]2(N1)[C@@H]4O)[C@]3(O)CO` [TTX, tetrodotoxin], the “effect on rapid transient inward currents” value with LUHMES neurons [4] is listed as “blocked”. Moreover, in the data set with LUHMES neurons [2], the “signal amplitude compared to control, response to AMP” value was 21% and 20.5 ± 0.02%; the “signal amplitude compared to control, response to DA” value is 69% and 68.6 ± 0.06%. Also, in the data set on NaV channels [6], the “pIC50, NaV current (pulse not specified)” value is ~ 7.2; the “pIC50, NaV current, 1st pulse” value worked out at 7.23 ± 0.05; the “pIC50, NaV current, 10th pulse” value turned out to be 7.26 ± 0.05. The “pIC50 on the response triggered by VTD” value with NaV channels [7] was 7.9 and 7.93 ± 0.06.

Regarding `COc1ccc(C(=O)O[C@H]2CC[C@@]3(C)[C@@H]4CC[C@H]5[C@]6(O)C[C@H](O)[C@@]7(O)[C@@H](CN8C[C@@H](C)CC[C@H]8[C@@]7(C)O)[C@]6(O)C[C@@]53O[C@]24O)cc1OC` [VTD, veratridine], the “effect on action potential duration” value in the data set on LUHMES neurons [4] (1 µM VTD, current clamp, n = 4) is given as “reversibly increased the action potential duration”. Also, the “pEC50, rise of [Ca2+]i” value in the data set with NaV channels [7] (LUHMES neurons) is 5.4 and 5.38 ± 0.03.

Consider `COC(=O)[C@H]1[C@@H](OC(=O)c2ccccc2)C[C@@H]2CC[C@H]1N2C` [cocaine], for which, in data set [3], the “effect on uptake of [3H]DA” value is on record as “inhibited; also recorded: significantly reduced”.

As for `COC(=O)C1=C(C)NC(C)=C(C(=O)OC)C1c1ccccc1[N+](=O)[O-]` [nifedipine], in the data set with LUHMES neurons [2], the “signal amplitude compared to control, response to AMP” value was 51% and 51.4 ± 0.03%; the “signal amplitude compared to control, response to DA” value was 70% and 70.2 ± 0.05%.

Turning to `CN1Cc2c(N)cccc2C(c2ccccc2)C1` (centres unmarked) [nomifensine], the “effect on oscillations induced by AMP and DA” value with LUHMES neurons [2] is listed as “blocked”.

Regarding `C[C@@H]1C[C@@H]2O[C@@H]3[C@@H](C)[C@H](O)[C@@H]4O[C@@]5(CCCO5)[C@@H](C)[C@H](C)[C@H]4O[C@H]3C[C@H]2O[C@H]2C[C@H]3O[C@H]4C/C=C\C[C@H]5O[C@H]6C=C[C@H]7O[C@H]8[C@H](O)[C@H]9O[C@@H](/C=C/[C@H](O)CO)C=CC[C@@H]9O[C@@H]8C[C@@H]7O[C@@H]6C=C[C@@H]5O[C@@H]4C[C@@H](O)[C@]3(C)O[C@@H]2C1` [pCTX-2, pacific ciguatoxin-2], in the data set with NaV channels [7], the “amplitude of the evoked response” value turned out to be 1779 ± 50 AU; the “effect compared to control” value is on record as “no effect”; the “effect on [Ca2+]i / Ca2+-imaging signal” value was “induced an increase of the baseline and oscillations; also recorded: increased [Ca^2+]i”; the “effect on the amplitude induced by 3 µM VTD” value is listed as “significantly reduced”. For the same compound, the “acute toxicity (mice)” value in the data set with mice is 2.3 µg/kg.

For `Cc1ccc(C(=O)Nc2ccc(S(=O)(=O)O)c3cc(S(=O)(=O)O)cc(S(=O)(=O)O)c23)cc1NC(=O)c1cccc(NC(=O)Nc2cccc(C(=O)Nc3cc(C(=O)Nc4ccc(S(=O)(=O)O)c5cc(S(=O)(=O)O)cc(S(=O)(=O)O)c45)ccc3C)c2)c1` [suramin], in the data set with P2X receptors [1] (0.1 µM α,β-meATP (~EC75)), the “pIC50 … by α,β-meATP” value was 4.51 ± 0.03 and 4.5. The “pIC50 on the response triggered by ATP” value in the data set with P2X receptors [1] is 4.09 ± 0.03 and 4.1. Also, the “pIC50 for human P2X3 receptors” value on human P2X3 receptors is reported as “approximately 4.8”.

Take `Nc1ncnc2c1ncn2[C@@H]1O[C@H](COP(=O)(O)CP(=O)(O)OP(=O)(O)O)[C@@H](O)[C@H]1O` [α,β-meATP]: the “pEC50 in Ca2+-imaging” value on P2X receptors [5] was 7.52 ± 0.03 and 7.5. Besides, the “pEC50, amplitude normalized to K+ amplitude” value at P2X receptors [5] (normalized to 30 mM K+ application, 5 differentiations) turned out to be 7.58 ± 0.04.

Regarding microcystin-LF, in the data set with NaV channels [7], the “effect alone in Ca2+-imaging” value is “no significate effect; also recorded: did not show any effects” and the “effect on the response to 3 µM VTD” value is given as “no significate effect; also recorded: did not show any effects”.
